Test systems include 786-0; CAKI-1; CCRF-CEM; EKVX; HCT-116; HL-60; HOP-92; HT-29; IGROV-1; M14; Malme-3M; OVCAR-4; SK-MEL-5; SNB-19; SNB-75; SR; UACC-62; SK-OV-3; U-251.
Common to all, as to experiment: NCI-60 cell line screen, 48 h

Structures are written as SMILES.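 Growth conditions: 96-well plates. Treatment: test compound, 48 hours, 5 concentrations. Analysis: linear interpolation between bracketing concentrations; unreached endpoints set to highest concentration. GI50 is the concentration that inhibits growth by half.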 Activity calls are given as the source filed them. No stated cut-off is given here; in the data, active = GI50 up to about 1.1 µM and inactive = higher.

For the compound `COc1cc2c(cc1O)[C@@]1(Cc3ccc(OC)c(OC)c3)CCC(=O)N1CC2`, the GI50 in the assay with 786-0, in the assay on CAKI-1, with CCRF-CEM, with EKVX, with HCT-116 and in the assay on HL-60 was > 100 µM (inactive) throughout. Moreover, the GI50 was 39.8 µM (inactive) in the assay on HOP-92; > 100 µM (inactive) in the assay with HT-29; > 100 µM (inactive) with IGROV-1; > 100 µM (inactive) in the assay on M14; 68.4 µM (inactive) in the assay with Malme-3M; > 100 µM (inactive) in the assay on OVCAR-4. For the same compound, the GI50 with SK-MEL-5 was > 100 µM (inactive); with SNB-19, > 100 µM (inactive); in the assay on SNB-75, > 100 µM (inactive); in the assay on SR, 61.8 µM (inactive); in the assay on UACC-62, > 100 µM (inactive).
As to `COc1cccc2c1C(=O)c1c(O)c3c(c(O)c1C2=O)C[C@@](O)(C(C)=O)C[C@@H]3OC1CC([N+]([O-])(Cc2ccccc2)Cc2ccccc2)C(O)C(C)O1` (some centres undefined), the GI50 in the assay on 786-0 is 1.44 µM (inactive); with CAKI-1 it was 1.14 µM (inactive); in the assay with CCRF-CEM it was 0.399 µM (active); with EKVX, 1.8 µM (inactive); with HL-60, 1.42 µM (inactive); in the assay with HOP-92 it was 1.52 µM (inactive). Besides, the GI50 in the assay with HT-29 was 1.52 µM (inactive); in the assay on IGROV-1 it was 1.36 µM (inactive); in the assay on M14, 1.69 µM (inactive); in the assay on OVCAR-4, 1.77 µM (inactive); in the assay with SK-MEL-5 it was 1.35 µM (inactive); in the assay on SK-OV-3, 4.2 µM (inactive). Also, the GI50 in the assay with SNB-19 is 2.13 µM (inactive); in the assay with SNB-75, 1.48 µM (inactive); in the assay with SR, 0.179 µM (active); in the assay on U-251, 1.24 µM (inactive); in the assay on UACC-62, 1.47 µM (inactive).
For `NC(CCCNc1cccc(O)c1)C(=O)O` (centres undefined), the GI50 in the assay on 786-0, with CAKI-1, in the assay on CCRF-CEM, in the assay on EKVX, in the assay with HCT-116 and with HL-60 was > 100 µM (inactive) throughout. The GI50 in the assay on HOP-92, in the assay on HT-29, with M14, in the assay with Malme-3M, in the assay on OVCAR-4 and with SK-MEL-5 was > 100 µM (inactive) each time. Further, the GI50 in the assay on SK-OV-3, with SNB-19, in the assay on SNB-75, in the assay on SR, in the assay on U-251 and in the assay with UACC-62 was > 100 µM (inactive) in each case.
Turning to `CCN(CC)CCC1CC/C(=C\c2ccc(OC)cc2)C1=O` (centres undefined), the GI50 was > 100 µM (inactive) in the assay with 786-0; > 100 µM (inactive) with CAKI-1; > 100 µM (inactive) in the assay with CCRF-CEM; > 100 µM (inactive) in the assay on EKVX; 87.9 µM (inactive) in the assay with HCT-116; 47.8 µM (inactive) with HL-60. Moreover, the GI50 in the assay with HOP-92 was 39.5 µM (inactive); with HT-29, 39.3 µM (inactive); with IGROV-1, > 100 µM (inactive); with M14 it was 35.5 µM (inactive); with Malme-3M, > 100 µM (inactive); in the assay on OVCAR-4 it was > 100 µM (inactive). Further, the GI50 is 23.6 µM (inactive) in the assay on SK-MEL-5; > 100 µM (inactive) with SNB-19; > 100 µM (inactive) in the assay on SNB-75; 55.8 µM (inactive) with SR; > 100 µM (inactive) in the assay on U-251; 17.5 µM (inactive) with UACC-62.
Take `Cc1ccc(/C=C/C(=O)CCN(C)C)cc1`: the GI50 is 17.9 µM (inactive) with 786-0; 13.9 µM (inactive) in the assay with CAKI-1; 24.7 µM (inactive) in the assay with CCRF-CEM; 18.9 µM (inactive) in the assay on HCT-116; 21.1 µM (inactive) in the assay on HL-60; 19.5 µM (inactive) with HOP-92. Further, the GI50 with HT-29 was 18.2 µM (inactive); in the assay on IGROV-1 it was 20.8 µM (inactive); in the assay with M14, 21.5 µM (inactive); with Malme-3M it was 20.7 µM (inactive); in the assay on OVCAR-4, 15.2 µM (inactive); in the assay on SK-MEL-5 it was 19.4 µM (inactive). Also, the GI50 with SK-OV-3 is 45 µM (inactive); in the assay on SNB-19 it was 26.3 µM (inactive); in the assay on SNB-75, 20.1 µM (inactive); in the assay on SR, 21.4 µM (inactive); in the assay on U-251, 16.3 µM (inactive); in the assay on UACC-62 it was 14.6 µM (inactive).
With `CCOC(=O)C(=Cc1ccccc1Br)C(=O)OCC`, the GI50 is 3.05 µM (inactive) in the assay with 786-0; 2.53 µM (inactive) in the assay on CAKI-1; 9.23 µM (inactive) with CCRF-CEM; 4.18 µM (inactive) in the assay on EKVX; 2.95 µM (inactive) with HCT-116; 0.585 µM (active) in the assay with HL-60. Moreover, the GI50 was 3.4 µM (inactive) in the assay on HOP-92; 3.36 µM (inactive) in the assay with HT-29; 1.96 µM (inactive) in the assay with IGROV-1; 0.424 µM (active) in the assay on M14; 3.48 µM (inactive) in the assay on Malme-3M; 4.09 µM (inactive) in the assay on OVCAR-4. Further, the GI50 with SK-MEL-5 was 1.85 µM (inactive); with SNB-19, 2.53 µM (inactive); in the assay on SNB-75, 5.58 µM (inactive); in the assay on SR, 0.208 µM (active); in the assay on U-251 it was 1.66 µM (inactive); in the assay on UACC-62, 1.72 µM (inactive).
On to `C[C@@H](C[C@@H](O)[C@H](O)C(C)(C)O)[C@H]1CC=C2[C@]3(C)[C@H](O)C[C@H]4C(C)(C)[C@H](O)CC[C@]4(C)[C@H]3CC[C@@]21C`, for which the GI50 in the assay with 786-0 was 15 µM (inactive); with CAKI-1, 16.4 µM (inactive); with CCRF-CEM it was 18 µM (inactive); in the assay with EKVX, 12.3 µM (inactive); with HCT-116, 16.1 µM (inactive); with HL-60, 14.2 µM (inactive). Also, the GI50 in the assay on HOP-92 was 13.9 µM (inactive); in the assay on HT-29, 13.4 µM (inactive); with IGROV-1, 16.3 µM (inactive); in the assay on M14, 15.1 µM (inactive); with Malme-3M, 14.3 µM (inactive); in the assay on OVCAR-4 it was 14.4 µM (inactive). For the same compound, the GI50 with SK-MEL-5 is 14.2 µM (inactive); in the assay with SNB-19, 16 µM (inactive); in the assay on SNB-75 it was 17.6 µM (inactive); in the assay with SR, 21.9 µM (inactive); with U-251, 16.7 µM (inactive).
As for `C=C[C@@]1(O)CCCC2=C(C(=O)OCC)CC[C@]21C`, the GI50 is > 100 µM (inactive) in the assay on 786-0; 44.7 µM (inactive) in the assay with CCRF-CEM; > 100 µM (inactive) in the assay on EKVX; 36.1 µM (inactive) in the assay on HL-60; > 100 µM (inactive) in the assay on HOP-92; 64.4 µM (inactive) in the assay on HT-29. Besides, the GI50 with IGROV-1 is > 100 µM (inactive); in the assay on M14 it was 78.7 µM (inactive); in the assay on Malme-3M, > 100 µM (inactive); with SK-MEL-5, 38.1 µM (inactive); in the assay with SK-OV-3, > 100 µM (inactive); in the assay with SNB-19, 47.5 µM (inactive). Further, the GI50 is 54.1 µM (inactive) in the assay with SR and > 100 µM (inactive) in the assay on U-251.
On to `C[C@]1(CO)CCC[C@@]2(C)C1CC[C@H]1CC3C[C@]12CC[C@]3(C)O` (some centres undefined), for which the GI50 was > 100 µM (inactive) in the assay with 786-0; > 100 µM (inactive) in the assay on CAKI-1; 0.213 µM (active) with CCRF-CEM; 49.8 µM (inactive) with HCT-116; 5.22 µM (inactive) in the assay with HL-60; > 100 µM (inactive) with HOP-92. Besides, the GI50 with HT-29 was > 100 µM (inactive); in the assay with IGROV-1, > 10 µM (inactive); with M14 it was > 100 µM (inactive); with Malme-3M, > 100 µM (inactive); with OVCAR-4, 46.1 µM (inactive); with SK-MEL-5, 17.9 µM (inactive). Moreover, the GI50 in the assay on SK-OV-3 is > 100 µM (inactive); with SNB-19 it was > 100 µM (inactive); in the assay on SNB-75, 30.8 µM (inactive); in the assay on SR, 83.2 µM (inactive); with U-251 it was 42.1 µM (inactive); in the assay with UACC-62, > 100 µM (inactive).
Turning to `CCOC(=O)Oc1c(OC)cc(C(=O)NC2CCc3cc(OC)c(OC)c(OC)c3-c3ccc(SC)c(=O)cc32)cc1OC` (centres undefined), the GI50 is 0.239 µM (active) in the assay with 786-0; < 0.007 µM (active) in the assay with CCRF-CEM; 0.16 µM (active) in the assay with EKVX; 0.0566 µM (active) with HCT-116; < 0.007 µM (active) in the assay with HL-60; 0.0728 µM (active) in the assay on HOP-92. For the same compound, the GI50 in the assay on HT-29 was 0.0484 µM (active); in the assay with IGROV-1 it was 0.0506 µM (active); with M14, 0.138 µM (active); in the assay on Malme-3M, 0.204 µM (active); in the assay with OVCAR-4 it was 0.789 µM (active); with SK-MEL-5, 0.0456 µM (active). In addition, the GI50 was 0.0513 µM (active) in the assay on SK-OV-3; 0.324 µM (active) in the assay on SNB-19; 0.071 µM (active) with SNB-75; < 0.007 µM (active) with SR; 0.0346 µM (active) in the assay on U-251; 0.0528 µM (active) in the assay with UACC-62.
On to `O=C1c2ccccc2C(=O)c2c1cc(S(=O)(=O)O)c(O)c2O` [Alizarin Red S], for which the GI50 in the assay on 786-0 was > 100 µM (inactive); in the assay with CAKI-1, > 100 µM (inactive); in the assay with CCRF-CEM it was > 100 µM (inactive); in the assay with EKVX, > 100 µM (inactive); in the assay on HCT-116, > 100 µM (inactive); in the assay with HOP-92, 90.8 µM (inactive). Besides, the GI50 with HT-29 is > 100 µM (inactive); in the assay on IGROV-1, > 100 µM (inactive); in the assay with M14, > 100 µM (inactive); in the assay with OVCAR-4 it was > 100 µM (inactive); in the assay with SK-OV-3, > 100 µM (inactive); with SNB-19 it was > 10 µM (inactive). In addition, the GI50 in the assay with SNB-75, in the assay with SR, in the assay with U-251 and with UACC-62 was > 100 µM (inactive) each time.

The record behind these values is ChEMBL document CHEMBL1201862, “PubChem BioAssay data set” (2004).
